Assay results from US11319303B2 (WIGEN BIOMEDICINE TECHNOLOGY (SHANGHAI) CO., LTD., priority 2017, dated 2022).
Where a name gives a salt, the structure may show the parent alone.

Molecular target: LC3B (Homo sapiens, UniProt Q9GZQ8)
Test: Fluorescence Polarization (FP) Assay: displacement of FITC-labeled peptide from GST-LC3B
Type: binding
Conditions: not given
Experimental: The compounds of the present invention for regulating the autophagy-related protein LC3B were tested by Fluorescence Polarization (FP) Assay.
Fluorescence Polarization (FP) Assay Test

Row | SMILES | IC50 [µM]
1 | CN(C)CCNC=C1C(=O)CC(c2cccnc2Br)CC1=O (centres unmarked) [Compound 338, 5-(2-bromopyridin-3-yl)-2-(((2-(dimethylamino)ethyl)amino)methylene) cyclohexane-1,3-dione] | < 3
2 | CN1C(=O)C(=CNCCN2CCN(CCO)CC2)C(=O)N(C)C1=O [Compound 10, 5-(((2-(4-(2-hydroxyethyl)piperazin-1-yl)ethyl)amino)methylene)-1,3-dimethylpyrimidine-2,4,6(1H,3H,5H)-trione] | 100 to 1000

Same assay, conditions: Fluorescence Polarization assay; GST-LC3B 180 nM, FITC-labeled peptide 18 nM, 25° C.; read-out: IC50

Row | SMILES | IC50 [µM]
3 | Cc1ccccc1C1CC(=O)C(=CNCCN2CCN(CCO)CC2)C(=O)C1 (centres unmarked) [Compound 28, 2-(((2-(4-(2-hydroxyethyl)piperazin-1-yl)ethyl)amino)methylene)-5-(o-tolyl)cyclohexane-1,3-dione] | 3 to 15
4 | O=C1CC(c2ccc(O)cc2)CC(=O)C1=CO (centres unmarked) [Compound 443, 2-(hydroxymethylene)-5-(4-hydroxyphenyl)cyclo-hexane-1,3-dione] | 15 to 100
5 | CN(C)CCNC=C1C(=O)CC(c2c(C(F)(F)F)ccc(Cl)c2Cl)CC1=O (centres unmarked) [Compound 377, 5-(2,3-dichloro-6-(trifluoromethyl)phenyl)-2-(((2-(dimethylamino)ethyl)amino)methylene) cyclohexane-1,3-dione] | < 3
6 | CCN(CC)CCCC(C)N/C=C1\C(=O)Nc2cc(Cl)ccc2C1=O (centres unmarked) [Compound 395, 7-chloro-3-(((5-(diethylamino)penta-2-yl)amino)methylene) quinoline-2,4 (1H,3H)-dione] | 3 to 15
7 | CN(C)C=C1C(=O)CC(c2cccc3[nH]ccc23)CC1=O (centres unmarked) [Compound 271, 2-((dimethylamino)methylene)-5-(1H-indol-4-yl)cyclohexane-1,3-dione] | < 3
8 | Cc1[nH]c2ccccc2c1C1CC(=O)C(=CN(C)C)C(=O)C1 (centres unmarked) [Compound 296, 2-((dimethylamino)methylene)-5-(2-methyl-1H-indol-3-yl)cyclohexane-1,3-dione] | < 3
9 | CCCCn1cccc1C1CC(=O)C(=CN(C)C)C(=O)C1 (centres unmarked) [Compound 279, 5-(1-butyl-1H-pyrrol-2-yl)-2-((dimethylamino)methylene) cyclohexane-1,3-dione] | 3 to 15
10 | CN(C)C=C1C(=O)CC(c2ccc3ccccc3c2)CC1=O (centres unmarked) [Compound 278, 2-((dimethylamino)methylene)-5-(naphthalen-2-yl)cyclohexane-1,3-dione] | < 3
11 | CC(=O)N1CCN(CCNC=C2C(=O)CC(c3ccc(C)cc3)CC2=O)CC1 (centres unmarked) [Compound 225, 2-(((2-(4-acetylpiperazin-1-yl)ethyl)amino)methylene)-5-(p-tolyl) cyclohexane-1,3-dione] | < 3
12 | Cc1ccc(C2CC(=O)C(=CNCCN3CCNCC3)C(=O)C2)cc1 (centres unmarked) [Compound 237, 2-(((2-(piperazin-1-yl)ethyl)amino)methylene)-5-(p-tolyl) cyclohexane-1,3-dione] | 3 to 15
13 | CN(C)CCNC=C1C(=O)CC(c2cc(C(F)(F)F)ccc2F)CC1=O (centres unmarked) [Compound 376, 2-(((2-(dimethylamino)ethyl)amino)methylene)-5-(2-fluoro-5-(trifluoromethyl)phenyl) cyclohexane-1,3-dione] | < 3
14 | CONC=C1C(=O)CC(c2ccccc2)CC1=O (centres unmarked) [Compound 180, 2-((methoxyamino)methylene)-5-phenylcyclo-hexane-1,3-dione] | 100 to 1000
15 | O=C1CC(c2ccc(Cl)cc2)CC(=O)C1=CNCCN1CCN(C(=O)N2CCOCC2)CC1 (centres unmarked) [Compound 249, 5-(4-chlorophenyl)-2-(((2-(4-(morpholine-4-carbonyl)piperazin-1-yl)ethyl)amino)methylene) cyclohexane-1,3-dione] | < 3
16 | CC(=O)OCC(=O)C1=C(O)CC(c2ccccc2)CC1=O (centres unmarked) [Compound 111, 2-(5-hydroxy-3-oxo-1,2,3,6-tetrahydro-[1,1′ -biphenyl]-4-yl)-2-oxoethyl acetate] | 100 to 1000
17 | CNCCNC=C1C(=O)CC(c2ccccc2)CC1=O (centres unmarked) [Compound 164, 2-(((2-(methylamino)ethyl)amino)methylene)-5-phenylcyclohexane-1,3-dione hydrochloride] | 3 to 15
18 | CCOC(=O)C1C(=O)C(=CNCCN2CCN(CCO)CC2)C(=O)CC1c1ccccc1 (centres unmarked) [Compound 335, ethyl 3-(((2-(4-(2-hydroxyethyl)piperazin-1-yl)ethyl)amino)methylene)-2,4-dioxo-6-phenylcyclohexane-1-carboxylate] | 3 to 15
19 | CN(C)C=C1C(=O)CC(c2ccnc3ccccc23)CC1=O (centres unmarked) [Compound 285, 2-((dimethylamino)methylene)-5-(quinolin-4-yl)cyclohexane-1,3-dione] | 3 to 15
20 | CC(C)(C)C(=O)N1CCN(CCNC=C2C(=O)CC(c3ccccc3)CC2=O)CC1 (centres unmarked) [Compound 212, 5-phenyl-2-(((2-(4-pivaloylpiperazin-1-yl)ethyl)amino)methylene) cyclohexane-1,3-dione] | < 3
21 | O=C1CC(c2cccc(Cl)c2Cl)CC(=O)C1=CO (centres unmarked) [Compound 421, 2-(hydroxymethylene)-5-(2,3-dichlorophenyl)cyclo-hexane-1,3-dione] | < 3
22 | O=C1/C(=C/NCCN2CCN(CCO)CC2)Oc2ccccc21 [Compound 183, 2-(((2-(4-(2-hydroxyethyl)piperazin-1-yl)ethyl)amino)methylene) benzofuran-3(2H)-one] | 100 to 1000

Row | SMILES | IC50 [µM]
23 | O=C1CC(c2ccc(Br)cc2)CC(=O)C1=CO (centres unmarked) [Compound 438, 2-(hydroxymethylene)-5-(4-bromophenyl)cyclo-hexane-1,3-dione] | 3 to 15
24 | COc1ccc(C2CC(=O)C(=CNCCN3CCN(C(=O)N4CCOCC4)CC3)C(=O)C2)cc1 (centres unmarked) [Compound 246, 5-(4-methoxyphenyl)-2-(((2-(4-(morpholine-4-carbonyl)piperazin-1-yl)ethyl)amino)-methylene) cyclohexane-1,3-dione] | < 3
25 | CN(C)CCNC=C1C(=O)CC(c2ccccc2)CC1=O (centres unmarked) [Compound 119, 2-(((2-(dimethylamino)ethyl)amino)methylene)-5-phenylcyclo-hexane-1,3-dione] | < 3
26 | O=C1CC(C(O)c2ccccc2)C(=O)/C1=C\NCCN1CCN(CCO)CC1 (centres unmarked) [Compound 391, 4-(hydroxy(phenyl)methyl)-2-(((2-(4-(2-ethoxyl)piperazin-1-yl)ethyl)amino)methylene) cyclopentane-1,3-dione] | 15 to 100
27 | O=C1CC(c2ccsc2)CC(=O)C1=CO (centres unmarked) [Compound 458, 2-(hydroxy-methylene)-5-(3-thiophen)cyclo-hexane-1,3-dione potassium salt] | 3 to 15
28 | O=C1CC(c2ccc(-c3ccncc3)s2)CC(=O)C1=CNCCN1CCN(CCO)CC1 (centres unmarked) [Compound 72, 2-(((2-(4-(2-hydroxyethyl)piperazin-1-yl)ethyl)amino)methylene)-5-(5-(pyridin-4-yl)thiophen-2-yl)cyclohexane-1,3-dione] | < 3
29 | CN(C)CCNC=C1C(=O)CC(c2ccc(F)cc2Br)CC1=O (centres unmarked) [Compound 305, 5-(2-bromo-4-fluorophenyl)-2-(((2-(dimethylamino)ethyl)amino)methylene) cyclohexane-1,3-dione] | < 3
30 | COc1cc2ncnc(C3CC(=O)C(=CNCCN4CCN(CCO)CC4)C(=O)C3)c2cc1OC (centres unmarked) [Compound 26, 5-(6,7-dimethoxyquinazolin-4-yl)-2-(((2-(4-(2-hydroxyethyl)piperazin-1-yl)ethyl)amino)methylene) cyclohexane-1,3-dione] | 15 to 100
31 | COc1cc(C2CC2)c(C2CC(=O)C(=CNCCN3CCN(CCO)CC3)C(=O)C2)cc1OC (centres unmarked) [Compound 23, 5-(2-cyclopropyl-4,5-dimethoxyphenyl)-2-(((2-(4-(2-hydroxyethyl)piperazin-1-yl)ethyl)amino)methylene) cyclohexane-1,3-dione] | 3 to 15
32 | C=CCNC=C1C(=O)CC(c2ccccc2)CC1=O (centres unmarked) [Compound 143, 2-((allylamino)methylene)-5-phenylcyclo-hexane-1,3-dione] | 15 to 100
33 | O=C1CC(c2ccccc2)CC(=O)C1=CNCCN1CCN(C(=O)c2ccc(Br)cc2)CC1 (centres unmarked) [Compound 220, 2-(((2-(4-(4-bromobenzoyl)piperazin-1-yl)ethyl)amino)methylene)-5-phenylcyclohexane-1,3-dione] | 3 to 15
34 | CN(C)CCNC=C1C(=O)CC(C(=O)NCc2ccccc2)CC1=O (centres unmarked) [Compound 359, N-benzyl-4-(((2-(dimethylamino)ethyl)amino)methylene)-3,5-dioxocyclohexane-1-carboxamide] | 15 to 100
35 | CN1C(=O)/C(=C\NCCN2CCN(CCO)CC2)C(=O)c2ccccc21 [Compound 193, 3-(((2-(4-(2-hydroxyethyl)piperazin-1-yl)ethyl)amino)methylene)-1-methylquinoline-2,4(1H,3H)-dione] | 15 to 100
36 | O=C1CC(c2cccc(Cl)c2Cl)CC(=O)C1=CNCCN1CCN(CCO)CC1 (centres unmarked) [Compound 400, 5-(2,3-dichlorophenyl)-2-(((2-(4-(2-ethoxyl)piperazin-1-yl)ethyl)amino)methylene) cyclohexane-1,3-dione] | < 3
37 | O=C1CC(c2ccccc2)C(c2ccccc2)C(=O)C1=CNCCN1CCN(CCO)CC1 (centres unmarked) [Compound 323, 2-(((2-(4-(2-hydroxyethyl)piperazin-1-yl)ethyl)amino)methylene)-4,5-diphenylcyclo-hexane-1,3-dione] | 3 to 15
38 | O=C1CC(C2CCOCC2)CC(=O)C1=CNCCN1CCN(CCO)CC1 (centres unmarked) [Compound 64, 2-(((2-(4-(2-hydroxyethyl)piperazin-1-yl)ethyl)amino)methylene)-5-(tetrahydro-2H-pyran-4-yl)cyclohexane-1,3-dione] | 100 to 1000
39 | CN(C)CCNC=C1C(=O)CC(c2c(Cl)ccc(Cl)c2Cl)CC1=O (centres unmarked) [Compound 397, 2-(((2-(dimethylamino)ethyl)amino)methylene)-5-(2,3,6-trichlorophenyl) cyclohexane-1,3-dione] | < 3
40 | O=C1CC(c2cccc(F)c2F)CC(=O)C1=CO (centres unmarked) [Compound 417, 2-(hydroxymethylene)-5-(2,3-difluorophenyl)cyclo-hexane-1,3-dione] | < 3
41 | COC(=O)C(CCSC)NC=C1C(=O)CC(c2ccccc2)CC1=O (centres unmarked) [Compound 127, methyl ((2,6-dioxo-4-phenylcyclo-hexylidene)methyl) methioninate] | 15 to 100
